Measurements as given in patent US11236078B2, “Heterocyclic inhibitors of the sodium channel” (priority 2014, dated 2022).

Tests used:
Format in all cases: cell-based
human Nav1.7 (hNav1.7) [1] = target: T1, human Nav1.7 (hNav1.7) (Homo sapiens, UniProt Q15858); assay: hNav1.7 slow inactivation block, manual patchclamp; details: HEK 293F cells stably expressing hNav1.7, slow inactivation induced in approximately 50% of channels
T1 construct: expressed in transfected cells
From the text: (§1) The generation of HEK 293F cell lines stably expressing human Nav1.7 (h Nav1.7), human Nav1.5 (hNav1.5) and rat Nav1.2 (r Nav1.2) was achieved by subcloning SCN9A, SCN5A, and SCN2A genes into inducible expression vectors followed by transfection into target cells using standard techniques. In the case of h Nav1.7, an expression vector encoding the human Navβ1 auxiliary subunit gene, SCN1B, was co-transfected with the expression vector bearing the SCN9A gene. Clones were selected using appropriate selection agents (0.3 mg/mL Zeocin and 0.8 mg/mL Geneticin) and maintained in Dulbecco's Modified Eagle medium, 10% fetal bovine serum, 1% non-essential amino acids to ˜80% confluence at 37° C. in a humidified incubator with 95% atmosphere and 5% CO2.
(§2) On the day of each experiment, cells that were grown to 80% confluence in a T75 flask were harvested for use on PatchXpress (Molecular Devices, CA, USA). Following a recovery period at 37° C. in a humidified incubator with 95% atmosphere and 5% CO2 in Dulbecco's Modified Eagle Medium, the media was replaced with an external recording solution containing (in mM): 90 TEACl, 50 NaCl, 1.8 CaCl2, 1 MgCl2, 10 HEPES, 10 glucose, adjusted to pH 7.4 with TEAOH and 300 mOsm with sucrose. The internal recording solution contained (in mM): 129 CsF, 2 MgCl2, 11 EGTA, 10 HEPES, 6 NaCl, 3 Na2ATP adjusted to pH 7.2 with CsOH and 280 mOsm with sucrose. The automated liquid handling facility of PatchXpress dispensed cells and added compound. Modulation of Nav1.7 channels by compounds was assessed by promoting the channels into the inactivated state using a conditioning voltage pulse of variable amplitude, followed by a brief hyperpolarizing pulse with a subsequent depolarized voltage step to measure the current amplitude in the presence and absence of compound.
(§3) In some cases, the potency of compounds was measured using either the Patchliner automated patch clamp platform (Nanion) or manual patch clamp techniques. Both approaches allowed the compounds to be characterized based upon the ability of a compound to modulate use- and/or state-dependence across human Nav1.7 (hNav1.7), human Nav1.5 (hNav1.5) and rat Nav1.2 (rNav1.2). The potency data is tabulated in Table 2 and is represented by six data fields. Three of the six fields represent potency data measured with the Patchliner automated platform under varying use- and state-dependent electrophysiology protocols similar to the PatchXpress protocols detailed above. For example, the second data column describes the potency of compounds in their ability to block 50% of Nav1.7 channels when the channel is repetitively activated by depolarizing voltage potentials to induce slow inactivation in approximately 50% of channels (Table 2: h Nav1.7: IC50 Slow Inactivation Block, Automated Patchclamp). The next three data fields describe the data generated from manual patchclamp electrophysiology measurements using similar methods to those employed for automated patchclamp studies.

rat Nav1.2 (rNav1.2) [2] = target: T2, rat Nav1.2 (rNav1.2) (Rattus norvegicus, UniProt P04775); assay: rNav1.2 slow inactivation block, manual patchclamp; details: HEK 293F cells stably expressing rNav1.2
T2 construct: expressed in transfected cells
From the text: as §1, §2, §3

human Nav1.7 (hNav1.7) [3] = target: T1, human Nav1.7 (hNav1.7); assay: hNav1.7 slow inactivation block, automated patchclamp; details: HEK 293F cells stably expressing hNav1.7, slow inactivation induced in approximately 50% of channels
From the text: as §1, §2, §3

rat Nav1.2 (rNav1.2) [4] = target: T2, rat Nav1.2 (rNav1.2); assay: rNav1.2 slow inactivation block, automated patchclamp; details: HEK 293F cells stably expressing rNav1.2
From the text: as §1, §2, §3

T1 sequence (Q15858 whole entry): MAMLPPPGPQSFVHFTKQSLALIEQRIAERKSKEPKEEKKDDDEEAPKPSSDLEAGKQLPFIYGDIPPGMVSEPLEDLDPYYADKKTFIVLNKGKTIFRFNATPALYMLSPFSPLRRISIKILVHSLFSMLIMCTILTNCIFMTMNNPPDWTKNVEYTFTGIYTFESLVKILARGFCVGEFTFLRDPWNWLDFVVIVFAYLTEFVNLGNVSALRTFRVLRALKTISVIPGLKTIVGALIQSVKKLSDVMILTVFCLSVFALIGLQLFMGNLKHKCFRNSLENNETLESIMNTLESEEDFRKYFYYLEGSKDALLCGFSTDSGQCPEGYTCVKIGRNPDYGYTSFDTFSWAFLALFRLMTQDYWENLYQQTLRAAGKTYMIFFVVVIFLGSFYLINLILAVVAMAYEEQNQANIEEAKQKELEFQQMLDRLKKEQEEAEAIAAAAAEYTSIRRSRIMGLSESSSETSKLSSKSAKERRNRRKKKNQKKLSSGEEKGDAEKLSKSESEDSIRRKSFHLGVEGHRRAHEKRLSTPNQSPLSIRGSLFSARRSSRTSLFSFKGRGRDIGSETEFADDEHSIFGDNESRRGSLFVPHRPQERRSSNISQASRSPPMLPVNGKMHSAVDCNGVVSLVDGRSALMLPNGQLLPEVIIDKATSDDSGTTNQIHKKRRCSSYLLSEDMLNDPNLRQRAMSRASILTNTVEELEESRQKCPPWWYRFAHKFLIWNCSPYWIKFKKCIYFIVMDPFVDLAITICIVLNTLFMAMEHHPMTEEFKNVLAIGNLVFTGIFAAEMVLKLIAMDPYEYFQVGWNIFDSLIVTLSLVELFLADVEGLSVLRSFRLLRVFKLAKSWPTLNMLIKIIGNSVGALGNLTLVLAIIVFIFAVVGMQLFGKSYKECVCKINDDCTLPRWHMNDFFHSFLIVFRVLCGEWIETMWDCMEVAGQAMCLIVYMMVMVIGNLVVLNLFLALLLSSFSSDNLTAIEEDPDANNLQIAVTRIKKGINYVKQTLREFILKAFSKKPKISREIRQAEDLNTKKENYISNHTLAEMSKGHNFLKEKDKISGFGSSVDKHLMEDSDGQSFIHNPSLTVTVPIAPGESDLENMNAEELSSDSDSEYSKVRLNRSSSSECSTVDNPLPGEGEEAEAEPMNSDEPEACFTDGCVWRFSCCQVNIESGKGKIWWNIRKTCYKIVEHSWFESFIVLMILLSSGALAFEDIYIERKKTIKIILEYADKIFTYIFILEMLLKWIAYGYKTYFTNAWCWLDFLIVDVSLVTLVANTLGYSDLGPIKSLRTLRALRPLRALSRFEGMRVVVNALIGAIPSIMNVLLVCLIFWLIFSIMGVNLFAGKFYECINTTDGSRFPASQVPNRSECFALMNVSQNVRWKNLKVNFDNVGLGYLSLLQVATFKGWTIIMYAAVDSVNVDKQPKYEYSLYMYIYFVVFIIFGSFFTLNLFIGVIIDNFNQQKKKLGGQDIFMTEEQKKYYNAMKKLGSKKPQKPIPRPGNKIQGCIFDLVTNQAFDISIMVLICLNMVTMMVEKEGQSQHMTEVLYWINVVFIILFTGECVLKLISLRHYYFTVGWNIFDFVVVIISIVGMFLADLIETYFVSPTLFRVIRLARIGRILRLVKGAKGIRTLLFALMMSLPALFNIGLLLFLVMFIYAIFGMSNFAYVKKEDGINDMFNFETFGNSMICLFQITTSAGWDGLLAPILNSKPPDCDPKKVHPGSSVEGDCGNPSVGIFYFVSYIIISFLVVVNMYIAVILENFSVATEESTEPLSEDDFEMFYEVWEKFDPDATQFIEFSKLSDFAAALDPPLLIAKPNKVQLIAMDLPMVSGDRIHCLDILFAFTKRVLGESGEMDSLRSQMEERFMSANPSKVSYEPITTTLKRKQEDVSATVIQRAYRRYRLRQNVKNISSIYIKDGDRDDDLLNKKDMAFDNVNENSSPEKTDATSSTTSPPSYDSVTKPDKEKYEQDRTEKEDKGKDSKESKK
T1 sequence (Q07699 19-218 partner): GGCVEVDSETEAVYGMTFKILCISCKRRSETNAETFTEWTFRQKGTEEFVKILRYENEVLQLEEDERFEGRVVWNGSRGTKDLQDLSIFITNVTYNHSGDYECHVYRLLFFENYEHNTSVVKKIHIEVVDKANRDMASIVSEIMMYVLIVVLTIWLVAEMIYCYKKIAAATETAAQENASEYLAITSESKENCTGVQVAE
T2 sequence (P04775 whole entry): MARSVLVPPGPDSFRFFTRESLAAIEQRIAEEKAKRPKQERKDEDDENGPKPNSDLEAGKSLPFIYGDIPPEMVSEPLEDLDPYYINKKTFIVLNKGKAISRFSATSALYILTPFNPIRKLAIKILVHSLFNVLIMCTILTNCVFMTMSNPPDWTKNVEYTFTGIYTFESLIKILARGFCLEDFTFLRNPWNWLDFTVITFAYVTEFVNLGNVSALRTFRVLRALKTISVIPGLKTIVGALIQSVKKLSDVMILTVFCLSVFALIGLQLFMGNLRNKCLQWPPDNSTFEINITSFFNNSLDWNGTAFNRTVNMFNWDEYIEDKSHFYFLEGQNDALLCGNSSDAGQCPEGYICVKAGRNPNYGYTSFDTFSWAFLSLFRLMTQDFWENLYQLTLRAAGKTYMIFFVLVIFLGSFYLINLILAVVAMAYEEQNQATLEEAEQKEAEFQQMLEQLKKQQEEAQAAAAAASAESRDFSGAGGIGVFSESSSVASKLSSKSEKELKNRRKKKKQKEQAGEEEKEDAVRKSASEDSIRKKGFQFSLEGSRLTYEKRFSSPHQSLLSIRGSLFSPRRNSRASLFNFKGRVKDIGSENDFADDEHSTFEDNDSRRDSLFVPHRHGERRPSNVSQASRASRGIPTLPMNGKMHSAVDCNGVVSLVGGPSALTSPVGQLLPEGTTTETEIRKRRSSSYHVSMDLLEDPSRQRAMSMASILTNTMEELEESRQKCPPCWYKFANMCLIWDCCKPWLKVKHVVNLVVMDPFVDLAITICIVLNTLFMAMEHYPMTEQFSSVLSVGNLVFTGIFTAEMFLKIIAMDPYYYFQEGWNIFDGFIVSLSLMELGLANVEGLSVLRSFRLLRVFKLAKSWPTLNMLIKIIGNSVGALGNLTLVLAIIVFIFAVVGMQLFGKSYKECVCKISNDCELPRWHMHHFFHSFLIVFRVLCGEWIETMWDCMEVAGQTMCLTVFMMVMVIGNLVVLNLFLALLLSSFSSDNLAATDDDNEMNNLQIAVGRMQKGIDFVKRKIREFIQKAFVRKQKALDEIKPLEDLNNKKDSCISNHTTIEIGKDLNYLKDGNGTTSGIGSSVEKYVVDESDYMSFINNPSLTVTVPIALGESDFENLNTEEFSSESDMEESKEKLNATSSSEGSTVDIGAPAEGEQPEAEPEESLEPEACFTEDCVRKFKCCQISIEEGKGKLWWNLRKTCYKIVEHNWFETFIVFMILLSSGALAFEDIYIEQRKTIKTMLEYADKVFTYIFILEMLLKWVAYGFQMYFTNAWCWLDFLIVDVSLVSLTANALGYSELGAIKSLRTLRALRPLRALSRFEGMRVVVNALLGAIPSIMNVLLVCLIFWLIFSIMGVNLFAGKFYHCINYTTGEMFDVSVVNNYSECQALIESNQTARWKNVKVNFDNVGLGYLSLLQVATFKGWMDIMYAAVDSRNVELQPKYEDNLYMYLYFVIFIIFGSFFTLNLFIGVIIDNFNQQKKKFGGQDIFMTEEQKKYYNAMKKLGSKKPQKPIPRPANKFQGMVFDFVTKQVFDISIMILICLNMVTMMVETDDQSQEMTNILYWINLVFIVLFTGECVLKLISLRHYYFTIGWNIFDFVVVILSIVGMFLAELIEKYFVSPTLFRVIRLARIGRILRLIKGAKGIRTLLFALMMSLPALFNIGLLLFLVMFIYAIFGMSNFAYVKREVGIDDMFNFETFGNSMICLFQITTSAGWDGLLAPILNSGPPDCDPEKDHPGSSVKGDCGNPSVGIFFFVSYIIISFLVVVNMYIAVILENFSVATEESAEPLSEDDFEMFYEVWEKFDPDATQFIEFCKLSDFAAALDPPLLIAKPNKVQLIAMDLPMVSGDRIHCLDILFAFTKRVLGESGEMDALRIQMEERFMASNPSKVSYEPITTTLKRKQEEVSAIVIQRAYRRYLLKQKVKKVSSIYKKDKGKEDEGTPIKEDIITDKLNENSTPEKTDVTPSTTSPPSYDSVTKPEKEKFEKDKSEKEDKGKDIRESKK

SMILES	IC50 (human Nav1.7 (hNav1.7) [1]) [nM]	IC50 (rat Nav1.2 (rNav1.2) [2]) [nM]	IC50 (human Nav1.7 (hNav1.7) [3]) [nM]	IC50 (rat Nav1.2 (rNav1.2) [4]) [nM]
O=C(Cc1cc(F)c(Oc2cc(C(F)(F)F)cc(C(F)(F)F)c2)cc1F)Nc1ncns1 [Compound 22, 2-{4-[3,5-bis(trifluoromethyl)phenoxy]-2,5-difluorophenyl}-N-(1,2,4-thiadiazol-5-yl)acetamide]	> 3200		> 32000	> 32000
CCNC(=O)c1cc(Oc2cc(F)c(S(=O)(=O)Nc3ncns3)cc2F)cc(C(F)(F)F)c1 [Compound 35, 3-{2,5-difluoro-4-[(1,2,4-thiadiazol-5-yl)sulfamoyl]phenoxy}-N-ethyl-5 (trifluoromethyl)benzamide]	~16200		> 32000	
CS(=O)(=O)NC(=O)c1cc(F)c(Oc2cc(C(F)(F)F)cc(C(F)(F)F)c2)cc1F [Compound 13, 4-[3,5-bis(trifluoromethyl)phenoxy]-2,5-difluoro-N-methanesulfonylbenzamide]	~10300	> 10000	19200	
O=S(=O)(Nc1nncs1)c1ccc(Oc2cc(C(F)(F)F)cc(C(F)(F)F)c2)cc1 [Compound 7, 4-[3,5-bis(trifluoromethyl)phenoxy]-N-(1,3,4-thiadiazol-2-yl)benzene-1-sulfonamide]			> 32000	
N#Cc1cc(S(=O)(=O)Nc2nncs2)ccc1Oc1cc(C(F)(F)F)cc(C(F)(F)F)c1 [Compound 10, 4-[3,5-bis(trifluoromethyl)phenoxy]-3-cyano-N-(1,3,4-thiadiazol-2-yl)benzene-1-sulfonamide]	> 10000	> 10000	> 32000	
CNC(=O)c1cc(Oc2cc(F)c(S(=O)(=O)Nc3ncns3)cc2F)cc(C(F)(F)F)c1 [Compound 25, 3-{2,5-difluoro-4-[(1,2,4-thiadiazol-5-yl)sulfamoyl]phenoxy}-N-methyl-5-(trifluoromethyl)benzamide]	~19200		~41800	> 32000
O=S(=O)(Nc1ncns1)c1ccc(Oc2cc(C(F)(F)F)cc(C(F)(F)F)c2)c(Cl)c1 [Compound 16, 4-[3,5-bis(trifluoromethyl)phenoxy]-3-chloro-N-(1,2,4-thiadiazol-5-yl)benzene-1-sulfonamide]		> 10000	21100	> 32000
O=C(c1cc(Oc2cc(F)c(S(=O)(=O)Nc3ncns3)cc2F)cc(C(F)(F)F)c1)N1CCCC1 [Compound 39, 2,5-difluoro-4-{3-[(pyrrolidin-1-yl)carbonyl]-5-(trifluoromethyl)phenoxy}-N-(1,2,4-thiadiazol-5-yl)benzene-1-sulfonamide]	~6930		~21700	
COCc1nsc(NS(=O)(=O)c2cc(F)c(Oc3cc(OC)cc(C(F)(F)F)c3)cc2F)n1 [Compound 44, 2,5-difluoro-4-[3-methoxy-5-(trifluoromethyl)phenoxy]-N-[3-(methoxymethyl)-1,2,4-thiadiazol-5-yl]benzene-1-sulfonamide]	> 10000		> 32000	
O=S(=O)(Nc1ncns1)c1ccc(Oc2cc(C(F)(F)F)cc(C(F)(F)F)c2)cc1 [Compound 6, 4-[3,5-bis(trifluoromethyl)phenoxy]-N-(1,2,4-thiadiazol-5-yl)benzene-1-sulfonamide]	~39000	> 10000		
O=S(=O)(Nc1nncs1)c1cc(F)c(Oc2cc(C(F)(F)F)cc(C(F)(F)F)c2)cc1F [Compound 8, 4-[3,5-bis(trifluoromethyl)phenoxy]-2,5-difluoro-N-(1,3,4-thiadiazol-2-yl)benzene-1-sulfonamide]			> 32000	
O=S(=O)(Nc1nccs1)c1ccc(Oc2cc(C(F)(F)F)cc(C(F)(F)F)c2)cc1 [Compound 9, 4-[3,5-bis(trifluoromethyl)phenoxy]-N-(1,3-thiazol-2-yl)benzene-1-sulfonamide]			~29500	
O=S(=O)(Nc1ncns1)c1ccc(Oc2cc(C(F)(F)F)cc(C(F)(F)F)c2)c(F)c1 [Compound 11, 4-[3,5-bis(trifluoromethyl)phenoxy]-3-fluoro-N-(1,2,4-thiadiazol-5-yl)benzene-1-sulfonamide]	> 3200	> 10000	> 32000	
O=S(=O)(Nc1ccncn1)c1cc(F)c(Oc2cc(C(F)(F)F)cc(C(F)(F)F)c2)cc1F [Compound 18, 4-[3,5-bis(trifluoromethyl)phenoxy]-2,5-difluoro-N-(pyrimidin-4-yl)benzene-1-sulfonamide]	~9760		> 32000	> 32000

Further compounds by falling IC50 (human Nav1.7 (hNav1.7) [1]), results first:

IC50 (human Nav1.7 (hNav1.7) [1]) [nM]	IC50 (rat Nav1.2 (rNav1.2) [2]) [nM]	IC50 (human Nav1.7 (hNav1.7) [3]) [nM]	IC50 (rat Nav1.2 (rNav1.2) [4]) [nM]	SMILES
~5590	> 3200	> 32000		O=C(Nc1ncns1)c1cc(F)c(Oc2cc(C(F)(F)F)cc(C(F)(F)F)c2)cc1F [Compound 12, 4-[3,5-bis(trifluoromethyl)phenoxy]-2,5-difluoro-N-(1,2,4-thiadiazol-5-yl)benzamide]
4960	4320	> 32000		O=C(Nc1nncs1)c1cc(F)c(Oc2cc(C(F)(F)F)cc(C(F)(F)F)c2)cc1F [Compound 15, 4-[3,5-bis(trifluoromethyl)phenoxy]-2,5-difluoro-N-(1,3,4-thiadiazol-2-yl)benzamide]
4940	> 10000	~49000	> 32000	N#Cc1cc(S(=O)(=O)Nc2ncns2)ccc1Oc1cc(C(F)(F)F)cc(C(F)(F)F)c1 [Compound 14, 4-[3,5-bis(trifluoromethyl)phenoxy]-3-cyano-N-(1,2,4-thiadiazol-5-yl)benzene-1-sulfonamide]
4840	11400	~36000	~25200	O=S(=O)(Nc1cccnn1)c1cc(F)c(Oc2cc(C(F)(F)F)cc(C(F)(F)F)c2)cc1F [Compound 30, 4-[3,5-bis(trifluoromethyl)phenoxy]-2,5-difluoro-N-(pyridazin-3-yl)benzene-1-sulfonamide]
2680	2370			O=C(NCc1cccc(-c2cc(C(F)(F)F)cc(C(F)(F)F)c2)c1)C1CC[C@H](O)C1 (stereo partly drawn) [Example 63, (3S)-N-({3-[3,5-bis(trifluoromethyl)phenyl]phenyl}methyl)-3-hydroxycyclopentane-1-carboxamide]
2130	> 10000	~37200	> 32000	CCOC(=O)c1cc(Oc2cc(F)c(S(=O)(=O)Nc3ncns3)cc2F)cc(C(F)(F)F)c1 [Compound 26, ethyl 3-{2,5-difluoro-4-[(1,2,4-thiadiazol-5-yl)sulfamoyl]phenoxy}-5-(trifluoromethyl)benzoate]
1570	961			O=C(NCc1cccc(-c2cc(C(F)(F)F)cc(C(F)(F)F)c2)c1)C1CC[C@@H](O)C1 (stereo partly drawn) [Example 64, (3R)-N-({3-[3,5-bis(trifluoromethyl)phenyl]phenyl}methyl)-3-hydroxycyclopentane-1-carboxamide]
1340	1890	5780		O=C(NCc1cc(F)c(Oc2ccccc2)cc1F)[C@@H]1CCCN1 [Compound 3, (2S)-N-[(2,5-difluoro-4-phenoxyphenyl)methyl]pyrrolidine-2-carboxamide]
741	744	5130		O=C(NCc1cc(-c2cc(C(F)(F)F)cc(C(F)(F)F)c2)cc(C(F)(F)F)c1)[C@@H]1C[C@H](F)CN1 [Compound 54, (2S,4S)-4-fluoro-N-((3′,5,5′-tris(trifluoromethyl)-[1,1′-biphenyl]-3-yl)methyl)pyrrolidine-2-carboxamide]
477	351			O=C(NCc1cccc(-c2cc(C(F)(F)F)cc(C(F)(F)F)c2)c1)C1CC[C@@H](F)C1 (stereo partly drawn) [Example 65, (3R)-N-({3-[3,5-bis(trifluoromethyl)phenyl]phenyl}methyl)-3-fluorocyclopentane-1-carboxamide]
162	156	3610	2580	O=C(NCc1cc(-c2cc(C(F)(F)F)cc(C(F)(F)F)c2)cc(C(F)(F)F)c1)[C@H]1CCCN1 [Compound 55, (R)-N-((3′,5,5′-tris(trifluoromethyl)-[1,1′-biphenyl]-3-yl)methyl)pyrrolidine-2-carboxamide]
